{
  "source": "patent US20120237552A1",
  "about": "“Peptoid Agonists of Nerve Growth Factor and Their Use as Medicaments” (priority 2009, published 2012)",
  "key": {"PC12 cells": {"system": "PC12 cells", "assay": "PC12 cell differentiation (neurite outgrowth)", "format": "cell-based, rat", "conditions": "3 days, peptoids 2 ng/ml to 50 μg/ml, reduced serum (0.5% FBS and 1% HS); compared with NGF 100 ng/ml", "protocol": "PC 12 cell differentiation was measured by plating cells onto collagen-coated 24-wells plates. NGF (100 ng/ml) or the small chemicals at different concentrations were added and the percentage of cells with neurite processes greater than two cell bodies in length were counted after relevant treatment. For each experiment at least 300 cells were randomly measured (Burstein and Greene, 1978).\nPC12 cells were maintained at 37° C. in DMEM supplemented with 2.5% FBS, 15% of Horse serum (HS) and penicillin/streptomycin in a humidified 5% CO2 incubator. The cells were grown on 60- and 100-mm tissue culture dishes (Becton Dickinson).\nPC 12 cells were cultured for 3 days in the presence of the peptoids (from 2 ng/ml to 50 μg/ml) under reduced serum conditions (0.5% FBS and 1% HS)."}, "C57BL/6 EAE mice": {"system": "C57BL/6 EAE mice", "assay": "Histological evaluation of brain and spinal cord in EAE mice", "format": "in vivo", "conditions": "100 mg/kg", "protocol": "Histological evaluation was done on paraformaldehyde-fixed, paraffin-embedded sections of brain and spinal cord. Sections 10 μm thick) were stained with hematoxylin and Luxol Fast Blue to assess inflammation and demyelination. Semiquantitative histological evaluation for inflammation and demyelination was conducted and scored blindly using the following scale: 0=normal; 1=1 to 3/section perivascular cuffs with minimal demyelination; 2=3 to 10 perivascular cuffs/section accompanied by moderate demyelination; 3=wide-spread perivascular cuffing, extensive demyelination with large confluent lesions (Villoslada et al., 2001).\nImmunohistochemical procedures were performed on 10 μm paraffin-embedded sections of brain and spinal cord as described previously (Villoslada et al., 2001). Primary antibodies were added at concentrations of 1/1000 for MCA500 (rat anti-mouse CD3 from Serotec) and 1/500 for MCA1107 (rat anti-mouse CD4 from Serotec). Specificity of the immunoreaction was determined by incubating sections without the primary antibodies or using the corresponding isotype controls which yielded no immunoreactivity."}},
  "data": [
    {"smiles": "CC(C)CCN(CC(=O)N(CCCN1CCCC1=O)CC(N)=O)C(=O)CNCCc1ccccc1F", "note": "[N35-4-8C, [N-(2-(2′-Fluorophenyl)ethyl)glycyl]-[N-(3-methylbutyl)glycyl]-N-[3-(2′-oxopyrrolidinyl)propyl]glycinamide]", "values": [
      {"measurement": "differentiation of PC12 cells", "setting": "PC12 cells", "value": "induce the differentiation of PC12 cells at different concentrations to an extent substantially comparable with that induce by NGF"},
      {"measurement": "histological scores at the brain and spinal cord level", "setting": "C57BL/6 EAE mice; day 26, vs placebo, p<0.05", "value": "significant lower histological scores"},
      {"measurement": "demyelination areas (Luxol fast blue)", "setting": "C57BL/6 EAE mice; spinal cord, vs placebo", "value": "decreased"},
      {"measurement": "inflammatory infiltrates in the brain and the spinal cord", "setting": "C57BL/6 EAE mice; vs placebo, p<0.05", "value": "less inflammatory infiltrates"}
    ]}
  ]
}
